Source: paper PMC2726796 (Journal of the American Chemical Society, 2008)

How the values were obtained:
KtzS = target: T1, KtzS (Kutzneria sp. 744, UniProt A8CF73); experiment: flavin reductase activity of purified enzyme; type: biochemical
T1 sequence (A8CF73 1-174): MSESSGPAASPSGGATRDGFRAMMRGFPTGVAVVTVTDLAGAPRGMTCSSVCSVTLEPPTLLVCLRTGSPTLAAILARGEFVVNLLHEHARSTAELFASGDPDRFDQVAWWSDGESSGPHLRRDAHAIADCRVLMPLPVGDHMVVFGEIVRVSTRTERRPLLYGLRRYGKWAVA

[1] = substrate: N[C@@H](Cc1c[nH]c2c(Cl)cccc12)C(=O)O; experiment: coupled halogenation assay with flavin reductase; type: biochemical, Kutzneria sp. 744; conditions: FAD, NADH, excess KtzS or SsuE, chloride, O2
[2] = substrate: N[C@@H](Cc1c[nH]c2ccccc12)C(=O)O; experiment: coupled halogenation assay with flavin reductase; type: biochemical, Kutzneria sp. 744; conditions: FAD, NADH, excess KtzS or SsuE, chloride, O2

NC(=O)C1=CN([C@@H]2O[C@H](COP(=O)(O)OP(=O)(O)OC[C@H]3O[C@@H](n4cnc5c(N)ncnc54)[C@H](O)[C@@H]3O)[C@@H](O)[C@H]2O)C=CC1 [NADH]
flavin reductase activity of purified enzyme (KtzS; FAD as acceptor): shown to be an NADH-utilizing FAD reductase

Cc1cc2nc3c(=O)[nH]c(=O)nc-3n(C[C@H](O)[C@H](O)[C@H](O)COP(=O)(O)OP(=O)(O)OC[C@H]3O[C@@H](n4cnc5c(N)ncnc54)[C@H](O)[C@@H]3O)c2cc1C [FAD]
flavin reductase activity of purified enzyme (KtzS; NADH as reductant): shown to be an NADH-utilizing FAD reductase

B1: KtzR (Kutzneria sp. 744) (protein)
chain: MVIVGGGTAGWMTAAYLKTAFGDRLSITVVESSRIGTIGVGEATFSDIQHFFQFLNLREQDWMPACNATYKLGIRFENWRHVGHHFYQPFEQIRPVYGFPLTDWWLHDAPTDRFDTDCFVMPNLCEAGRSPRHLDGTLADEDFVEEGDELANRTMSEHQGKSQFPYAYHFEAALLAKFLTGYAVDRGVEHVVDDVLDVRLDQRGWIEHVVTAEHGEIHGDLFVDCTGFRGLLLNKALGVPFVSYQDTLPNDSAVALQVPLDMQRRGIVPNTTATAREAGWIWTIPLFGRVGTGYVYAKDYLSPEEAERTLREFVGPAAADVEANHIRMRIGRSQESWRNNCVAIGLSSGFVEPLESTGIFFIHHAIEQLVKHFPAADWNPKSRDMYNSAVAHVMDGIREFLVIHYRGAARADNQYWRDTKTRPLPDGLAERIECWQTQLPDTETIYPYYHGLPPYSYMCILMGGGAIRTPASAALALTDQGAAQKEFAAVRDRAAQLRDTLPSHYEYLARMRGLDV
Km [1]: 114 µM | Km [2]: 808 µM
